# Laboratory results reported in the SangsterLogP compilation.
# Experiment: method code SF-AS, from DOI: 10.1271/bbb1961.38.1521
row,Structure (SMILES),logP
1,CNC(=O)Oc1ccc(Br)cc1,2.17
2,CNC(=O)Oc1cccc(C=O)c1,0.92
3,CNC(=O)Oc1ccc(S(C)(=O)=O)cc1,0.34
4,CNC(=O)Oc1cccc2ccccc12,2.36
5,CNC(=O)Oc1cc(C)cc(C(C)C)c1,3.1
6,CNC(=O)Oc1ccc(Cl)c(C)c1,2.57
7,CNC(=O)Oc1ccc(SC)cc1,1.92
8,CNC(=O)Oc1cccc(C(F)(F)F)c1,2.37
9,CNC(=O)Oc1cccc(F)c1,1.48
10,CNC(=O)Oc1ccc(C(C)(C)C)cc1,3.06
11,CNC(=O)Oc1ccccc1F,1.25
12,CNC(=O)Oc1ccc(C(=O)OC)cc1,1.5
13,CNC(=O)Oc1cccc(C(=O)OC)c1,1.42
14,CCC(C)c1ccc(OC(=O)NC)cc1 (stereo unspecified),3.2
15,CNC(=O)Oc1cccc(C(C)(C)C)c1,2.93
16,CCCCOc1cccc(OC(=O)NC)c1,2.96
17,CNC(=O)Oc1ccc(Cl)cc1,2.01
18,CNC(=O)Oc1ccc(C(C)(C)C)c(C)c1,3.38
19,CNC(=O)Oc1ccccc1Cl,1.64
20,CNC(=O)Oc1cc(C)ccc1C(C)C,2.84
21,CNC(=O)Oc1cccc(C)c1C,1.95
22,CNC(=O)Oc1ccc(C(C)=O)cc1,1.01
23,CNC(=O)Oc1ccc(SC)c(C)c1,2.47
24,CNC(=O)Oc1ccccc1C,1.46
25,CCCc1ccc(OC(=O)NC)cc1,2.72
26,CNC(=O)Oc1ccccc1C(C)(C)C,2.65

row,Structure (SMILES),logP
1,CNC(=O)Oc1ccccc1C#N,0.86
2,CCCc1cccc(OC(=O)NC)c1,2.64
3,CNC(=O)Oc1cccc(OC(C)C)c1,1.96
4,CNC(=O)Oc1ccc(C=O)cc1,0.99
5,CNC(=O)Oc1ccccc1OC,0.81
6,CNC(=O)Oc1ccc(C#N)cc1,0.95
7,CCCCOc1ccc(OC(=O)NC)cc1,2.86
8,CNC(=O)Oc1ccccc1C(C)C,2.31
9,CCOc1ccccc1OC(=O)NC,1.24
10,CNC(=O)Oc1ccc(Cl)c(Cl)c1,2.8
11,CNC(=O)Oc1cccc(Cl)c1,2.03
12,CNC(=O)Oc1cccc(Br)c1,2.25
13,CNC(=O)Oc1ccccc1[N+](=O)[O-],1.02
14,CNC(=O)Oc1cc(C)ccc1C(C)(C)C,3.14
15,CNC(=O)Oc1cc(Cl)cc(Cl)c1,3.03
16,CCCc1ccccc1OC(=O)NC,2.4
17,CCC(=O)c1ccc(OC(=O)NC)cc1,1.55
18,CNC(=O)Oc1cc(C)ccc1C,2.03
19,CNC(=O)Oc1ccc2ccccc2c1,2.56
20,CCc1ccccc1OC(=O)NC,1.93
21,CNC(=O)Oc1cccc(C(C)C)c1,2.63
22,CNC(=O)Oc1ccc([N+](=O)[O-])cc1,1.47
23,CNC(=O)Oc1ccccc1I,1.96
24,CNC(=O)Oc1cc(C)cc(C(C)(C)C)c1,3.35
25,CNC(=O)Oc1ccccc1Br,1.77
